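These data come from cells grown in 96-well plates and exposed to compound for 48 hours at five concentrations. TGI marks complete inhibition of growth.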
Legend:
Assay in all cases: NCI-60 cell line screen, 48 h
A549 NSCLC = test system: A549 NSCLC
CAKI-1 renal = test system: CAKI-1 renal
COLO 205 colon = test system: COLO 205 colon
DU-145 prostate = test system: DU-145 prostate
HCT-116 colon = test system: HCT-116 colon
HL-60(TB) leukemia = test system: HL-60(TB) leukemia
HT29 colon = test system: HT29 colon
IGROV1 ovarian = test system: IGROV1 ovarian
KM12 colon = test system: KM12 colon
LOX IMVI melanoma = test system: LOX IMVI melanoma
MDA-MB-231 breast = test system: MDA-MB-231 breast
MDA-MB-435 = test system: MDA-MB-435
NCI-H522 lung = test system: NCI-H522 lung
OVCAR-3 ovarian = test system: OVCAR-3 ovarian
PC-3 prostate = test system: PC-3 prostate
RXF 393 renal = test system: RXF 393 renal
SK-MEL-2 melanoma = test system: SK-MEL-2 melanoma
SW-620 colon = test system: SW-620 colon
T-47D breast = test system: T-47D breast
UACC-257 melanoma = test system: UACC-257 melanoma

SMILES	TGI (A549 NSCLC)	TGI (CAKI-1 renal)	TGI (COLO 205 colon)	TGI (DU-145 prostate)	TGI (HCT-116 colon)	TGI (HL-60(TB) leukemia)	TGI (HT29 colon)	TGI (IGROV1 ovarian)	TGI (KM12 colon)	TGI (LOX IMVI melanoma)	TGI (MDA-MB-231 breast)	TGI (MDA-MB-435)	TGI (NCI-H522 lung)	TGI (OVCAR-3 ovarian)	TGI (PC-3 prostate)	TGI (RXF 393 renal)	TGI (SK-MEL-2 melanoma)	TGI (SW-620 colon)	TGI (T-47D breast)	TGI (UACC-257 melanoma)
Cc1c2cc[n+](C)cc2c(C)c2c1[nH]c1ccc(Cl)cc12	4.15 µM	53.4 µM	10.9 µM	30.5 µM	32.2 µM	21.5 µM	44.9 µM	38.2 µM	35.5 µM	77.8 µM	> 47.5 µM	> 64.4 µM	2.38 µM	22.6 µM	> 43.2 µM	19.1 µM	9.6 µM	19.4 µM	14.8 µM	62.3 µM
CCOC(=O)N1CCN(c2nc(C)n(-c3ccccc3)c(=S)c2C#N)CC1	> 100 µM	> 100 µM	> 100 µM	> 100 µM	> 100 µM	> 66.7 µM	> 100 µM	> 63.4 µM	> 100 µM	> 100 µM	> 84.3 µM	> 100 µM	> 66.3 µM	> 100 µM	> 100 µM	> 100 µM	> 100 µM	> 100 µM	> 100 µM	> 100 µM
NC(=NCCN1CCCCCCC1)NO	> 100 µM	> 100 µM	> 100 µM	> 100 µM	26.7 µM	> 100 µM	> 100 µM	92.6 µM	> 100 µM	> 100 µM	> 100 µM	> 100 µM	> 100 µM	> 100 µM	> 100 µM	> 100 µM	> 100 µM	> 100 µM	> 100 µM	> 100 µM
O=C1C(c2c(O)[nH]c3ccccc23)=Nc2ccc(Br)cc21	> 100 µM	> 100 µM	> 100 µM	> 100 µM	> 100 µM	> 100 µM	> 100 µM	> 100 µM	> 100 µM	> 100 µM	77 µM	> 100 µM	> 100 µM	> 100 µM	49.7 µM	31 µM	93.9 µM	> 100 µM	> 100 µM	> 100 µM
C/C(=N/c1[nH]c(=O)cc2c1C(=O)CC2)N(C)C	> 200 µM	> 200 µM	> 200 µM	> 200 µM	> 200 µM	> 200 µM	> 200 µM	> 200 µM	> 200 µM	> 200 µM	> 200 µM	> 200 µM	> 200 µM	> 200 µM	> 200 µM	> 200 µM	> 200 µM	> 200 µM	> 200 µM	> 200 µM
CCOC(=O)c1nnsc1NN=C(C)C	> 100 µM	> 100 µM	> 100 µM	> 100 µM	> 100 µM	> 100 µM	> 100 µM	> 100 µM	> 100 µM	> 100 µM	> 100 µM	> 100 µM	> 100 µM	> 100 µM	> 100 µM	> 100 µM	> 100 µM	> 100 µM	> 100 µM	> 100 µM
COc1ccc2oc(=O)c(-c3nc4ccccc4o3)cc2c1	> 100 µM	> 100 µM	> 100 µM	> 100 µM	> 100 µM	> 100 µM	> 100 µM	> 100 µM	> 100 µM	> 100 µM	> 100 µM	> 100 µM	> 100 µM	> 100 µM	> 100 µM	> 100 µM	> 100 µM	> 100 µM	> 100 µM	> 100 µM
CC(C)(C)C1(O)C=C(O)C(=O)N1NC(=O)c1ccccc1Nc1ccccc1 (stereo not given)	> 100 µM	> 100 µM	> 100 µM	> 100 µM	> 100 µM	7.25 µM	> 100 µM	> 100 µM	> 100 µM	> 100 µM	> 100 µM	> 100 µM	81.2 µM	31.9 µM	> 100 µM	> 100 µM	> 100 µM	> 100 µM	> 100 µM	72.2 µM
CC(=O)NC1C(OC2C(CO)OC(OCC3OC(n4ccc(N)nc4=O)C(O)C3O)C(NC(C)=O)C2O)OC(CO)C(O)C1O (stereo not given)	> 100 µM	> 100 µM	> 100 µM	> 100 µM	> 100 µM	> 100 µM	> 100 µM	> 100 µM	> 100 µM	> 100 µM	> 100 µM	> 100 µM	> 100 µM	> 100 µM	> 100 µM	> 100 µM	> 100 µM	> 100 µM	> 100 µM	> 100 µM
CC[C@@H]1CC[C@@H]2[C@H](CC[C@]3(C)[C@@H](O)CC[C@@H]23)[C@H]1CO	> 100 µM	> 100 µM	> 100 µM	> 100 µM	> 100 µM	85.8 µM	> 100 µM	> 100 µM	> 100 µM	> 100 µM	> 100 µM	> 100 µM	> 100 µM	> 100 µM	> 100 µM	> 100 µM	> 100 µM	> 100 µM	> 100 µM	> 100 µM
CNCCCNC1(c2cc3ccccc3s2)CCCCC1	20.4 µM	22.1 µM	3.8 µM	24.2 µM	14.9 µM	18.9 µM	7.94 µM	25.5 µM	16.3 µM	9.94 µM	12.6 µM	5.86 µM	19.1 µM	25.4 µM	21.5 µM	12.2 µM	10.9 µM	26.3 µM	11.9 µM	3.35 µM
O=C(Nc1sccc1S(=O)(=O)c1ccc(Cl)cc1)c1ccccc1	> 100 µM	> 100 µM	> 100 µM	> 100 µM	> 100 µM	> 100 µM	> 100 µM	> 100 µM	> 100 µM	> 100 µM	> 100 µM	> 100 µM	> 100 µM	> 100 µM	> 100 µM	> 100 µM	> 100 µM	> 100 µM	> 100 µM	> 100 µM
CC(=O)OC[C@@]1(C)[C@@H]2[C@@H]3[C@@]4(CO[C@]3(C)C(=O)[C@@]3(O)C[C@H](C)[C@H](OC(C)=O)[C@@H]3[C@H]4OC(C)=O)[C@H](OC(=O)c3ccccc3)C[C@@H]21	> 100 µM	> 100 µM	> 100 µM	> 100 µM	> 100 µM	> 100 µM	> 100 µM	> 100 µM	> 100 µM	> 100 µM	> 100 µM	> 100 µM	> 100 µM	> 100 µM	> 100 µM	> 100 µM	> 100 µM	> 100 µM	> 100 µM	> 100 µM
N#Cc1c(-c2cccc(Cl)c2)cc(-c2ccc(Cl)cc2)nc1N	36.1 µM	86 µM	28.6 µM	> 100 µM	34.1 µM	77.2 µM	44 µM	24.4 µM	80.7 µM	31.5 µM	32 µM	37.6 µM	30.8 µM	63.9 µM	49.2 µM	32.3 µM	36.7 µM	34.2 µM	> 100 µM	36.1 µM
